The values that follow come from paper PMC6814258 (Pharmaceutical research, 2019).

Where a name gives a salt, the structure may show the parent alone.

The term inhibition denotes the drop in the measured response relative to a control, in per cent.

Chain of human KV7.1 (P51787 whole entry): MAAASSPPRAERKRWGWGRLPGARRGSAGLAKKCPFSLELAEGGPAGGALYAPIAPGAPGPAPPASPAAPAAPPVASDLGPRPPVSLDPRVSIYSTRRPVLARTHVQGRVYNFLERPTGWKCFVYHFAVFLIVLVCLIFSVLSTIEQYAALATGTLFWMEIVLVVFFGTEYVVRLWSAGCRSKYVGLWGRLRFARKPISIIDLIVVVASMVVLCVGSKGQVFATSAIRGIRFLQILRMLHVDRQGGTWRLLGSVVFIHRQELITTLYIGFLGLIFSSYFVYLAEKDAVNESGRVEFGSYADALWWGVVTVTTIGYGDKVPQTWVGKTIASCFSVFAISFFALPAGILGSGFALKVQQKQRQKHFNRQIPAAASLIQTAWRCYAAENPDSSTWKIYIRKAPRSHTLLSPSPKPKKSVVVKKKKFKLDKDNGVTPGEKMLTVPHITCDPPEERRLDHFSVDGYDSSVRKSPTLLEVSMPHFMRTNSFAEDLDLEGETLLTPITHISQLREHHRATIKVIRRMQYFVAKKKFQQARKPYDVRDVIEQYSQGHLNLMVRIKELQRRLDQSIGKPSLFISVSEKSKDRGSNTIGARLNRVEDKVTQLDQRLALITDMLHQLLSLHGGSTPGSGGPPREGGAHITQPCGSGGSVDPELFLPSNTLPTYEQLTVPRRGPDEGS

The first assay concerns the target human KV7.1 (Homo sapiens, UniProt P51787). Put plainly: KV7.1 86Rb+ efflux HTS. The assay is classed as cell-based. The following applies: 10 μM, n=2, CHO cells, 86Rb+ efflux, normalized to 10 μM chromanol 293B control.
Regarding `CN1CCCN(C(c2ccccc2)c2ccc(Cl)cc2)CC1.Cl.Cl` (stereo not drawn) [Homochlorcyclizine dihydrochloride], the “Average percent inhibition at 10 μM (KCNQ1)” value was 43.5%.

Still in this assay, the particulars now being: CHO, read-out: Average percent inhibition at 10 μM (KCNQ1).
As for `CCOc1ccc(Cc2nccc3cc(OCC)c(OCC)cc23)cc1OCC` [Ethaverine hydrochloride], the inhibition at 10 µM was found to be 86.9%. Same read-out and setting: to `Clc1ccc(C(Cn2ccnc2)OCc2csc3c(Cl)cccc23)c(Cl)c1` (stereo not drawn) [Sertaconazole nitrate] belongs 58.6%. Turning to `COc1ccc(Cc2nccc3cc(OC)c(OC)cc23)cc1OC` [Papaverine hydrochloride], the inhibition at 10 µM stood at 45.6%. Still for that read-out and setting: in the case of `C[C@]12CC[C@H]3C(=CCc4cc(O)ccc43)[C@@H]1CCC2=O` [Equilin] it was 64.6%. As to `O=C(OCCOCCO)c1ccccc1Nc1cccc(C(F)(F)F)c1` [Etofenamate], the inhibition at 10 µM is 51.8%. Same read-out and setting: in the case of `CSc1nc2cc(Cl)c(Oc3cccc(Cl)c3Cl)cc2[nH]1` [Triclabendazole] it was 76%; in that of `CS(=O)(=O)Nc1ccc([N+](=O)[O-])cc1Oc1ccccc1` [Nimesulide], 47.9%. `COC1=C(OC)C(=O)C(CCCCCCCCCCO)=C(C)C1=O` [Idebenone]: the inhibition at 10 µM is 59%. Regarding `Cc1c(C)c2c(c(C)c1O)CCC(C)(COc1ccc(CC3SC(=O)NC3=O)cc1)O2` (stereo not drawn) [Troglitazone], the inhibition at 10 µM came out at 73%.

Consider `CC(C)OC(=O)CCC/C=C\C[C@@H]1[C@@H](CC[C@@H](O)CCc2ccccc2)[C@H](O)C[C@@H]1O` [Latanoprost], for which the inhibition at 10 µM came out at 63.7%. Still for that read-out and setting: to `Clc1ccc(C(Cn2ccnc2)OCc2c(Cl)cccc2Cl)c(Cl)c1` (stereo not drawn) [Isoconazole] belongs 61.2%; to `CC1(C)O[C@@H]2[C@@H](CO[C@@]3(COS(N)(=O)=O)OC(C)(C)O[C@@H]23)O1` [Topiramate], 44.3%; to `COc1ccc(C(=O)c2ccccc2)c(O)c1` [Oxybenzone], 57.4%.

The next assay deals with Nav1.8 (Homo sapiens, UniProt Q9Y5Y9). Put plainly: Nav1.8 FLIPR HTS. The assay is classed as cell-based. The following applies: HEK293, read-out: Average percent inhibition at 10 μM (Nav1.8).
Chain of Nav1.8 (Q9Y5Y9 whole entry): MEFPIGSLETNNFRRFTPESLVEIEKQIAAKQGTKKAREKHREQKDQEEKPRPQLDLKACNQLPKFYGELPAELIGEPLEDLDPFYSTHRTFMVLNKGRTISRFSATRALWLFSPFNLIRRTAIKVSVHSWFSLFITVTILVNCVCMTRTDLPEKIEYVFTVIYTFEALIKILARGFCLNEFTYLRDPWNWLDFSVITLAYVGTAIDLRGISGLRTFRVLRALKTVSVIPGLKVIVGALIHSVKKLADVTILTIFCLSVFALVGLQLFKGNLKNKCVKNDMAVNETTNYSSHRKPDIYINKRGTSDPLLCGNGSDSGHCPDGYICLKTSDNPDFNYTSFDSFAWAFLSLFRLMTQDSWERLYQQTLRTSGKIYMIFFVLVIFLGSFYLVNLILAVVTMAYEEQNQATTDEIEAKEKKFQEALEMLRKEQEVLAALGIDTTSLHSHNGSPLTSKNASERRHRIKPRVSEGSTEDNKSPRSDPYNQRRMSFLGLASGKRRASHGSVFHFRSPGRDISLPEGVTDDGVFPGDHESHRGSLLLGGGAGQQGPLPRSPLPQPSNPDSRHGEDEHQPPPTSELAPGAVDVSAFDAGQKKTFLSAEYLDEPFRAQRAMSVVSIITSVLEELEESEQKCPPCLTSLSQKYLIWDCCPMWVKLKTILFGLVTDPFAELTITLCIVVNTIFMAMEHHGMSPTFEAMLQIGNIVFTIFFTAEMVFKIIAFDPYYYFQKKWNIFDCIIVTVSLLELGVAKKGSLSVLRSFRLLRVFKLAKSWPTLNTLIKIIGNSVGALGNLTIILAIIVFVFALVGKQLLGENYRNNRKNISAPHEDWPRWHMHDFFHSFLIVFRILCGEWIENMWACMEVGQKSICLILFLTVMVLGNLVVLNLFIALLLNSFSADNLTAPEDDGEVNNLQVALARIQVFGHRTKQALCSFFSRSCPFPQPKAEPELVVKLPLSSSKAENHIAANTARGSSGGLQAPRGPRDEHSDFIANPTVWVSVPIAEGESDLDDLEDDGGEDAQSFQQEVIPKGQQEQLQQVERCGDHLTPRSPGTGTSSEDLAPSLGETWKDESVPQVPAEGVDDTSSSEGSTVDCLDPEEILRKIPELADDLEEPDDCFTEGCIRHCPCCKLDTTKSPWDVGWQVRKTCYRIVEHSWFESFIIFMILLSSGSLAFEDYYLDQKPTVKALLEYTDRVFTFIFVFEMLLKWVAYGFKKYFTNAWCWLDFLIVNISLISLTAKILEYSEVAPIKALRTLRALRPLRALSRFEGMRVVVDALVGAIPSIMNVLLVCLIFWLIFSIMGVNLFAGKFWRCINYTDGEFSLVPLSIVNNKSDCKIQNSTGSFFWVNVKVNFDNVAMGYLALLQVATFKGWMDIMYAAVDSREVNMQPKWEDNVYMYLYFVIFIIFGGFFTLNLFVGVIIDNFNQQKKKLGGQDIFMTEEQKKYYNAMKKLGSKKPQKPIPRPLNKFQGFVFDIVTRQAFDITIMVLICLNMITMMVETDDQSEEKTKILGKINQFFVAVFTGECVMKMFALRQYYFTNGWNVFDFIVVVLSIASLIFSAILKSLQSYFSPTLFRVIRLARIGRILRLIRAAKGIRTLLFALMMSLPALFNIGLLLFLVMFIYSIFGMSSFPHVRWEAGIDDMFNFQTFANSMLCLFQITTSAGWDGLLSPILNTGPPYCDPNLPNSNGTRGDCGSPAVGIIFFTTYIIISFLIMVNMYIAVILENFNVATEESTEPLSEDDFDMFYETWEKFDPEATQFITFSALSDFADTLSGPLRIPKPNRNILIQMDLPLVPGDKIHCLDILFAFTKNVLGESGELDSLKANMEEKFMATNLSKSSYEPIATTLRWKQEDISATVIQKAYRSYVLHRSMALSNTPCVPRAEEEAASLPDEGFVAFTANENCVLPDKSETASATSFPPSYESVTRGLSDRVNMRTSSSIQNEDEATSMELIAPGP
Turning to `CCCCNc1ccc(C(=O)OCCOCCOCCOCCOCCOCCOCCOCCOCCOC)cc1` [Benzonatate], the inhibition at 10 µM stood at 79.9%.

Take `OCc1cc(C(O)CNCCCCCCOCCCCc2ccccc2)ccc1O` (stereo not drawn) [Salmeterol]: the inhibition at 10 µM came out at 99.6%. On the same count and under the same terms, in the case of `CN(C/C=C/c1ccccc1)Cc1cccc2ccccc12` [Naftifine hydrochloride] it was 96.1%. Consider `CCC(=O)O[C@@](Cc1ccccc1)(c1ccccc1)[C@@H](C)CN(C)C` [Levopropoxyphene napsylate], for which the inhibition at 10 µM was 95.1%. With `CNCCC=C1c2ccccc2CCc2ccccc21` [Nortriptyline hydrochloride], the inhibition at 10 µM came out at 85.9%. On to `[H]/N=C(/NCCCCC)N/N=C/c1c[nH]c2ccc(OC)cc12` [Tegaserod maleate], for which the inhibition at 10 µM was 98.3%. On the same count and under the same terms, in the case of `CCN(CC)CCOC(=O)C(c1ccccc1)c1ccccc1` [Adiphenine hydrochloride] it was 90.4%; in that of `COc1ccccc1OCCNCC(O)COc1cccc2[nH]c3ccccc3c12` (stereo not drawn) [Carvedilol], 104%. `CC(C)(C)NC[C@H](O)c1ccc(O)c(CO)c1` [Levalbuterol hydrochloride]: the inhibition at 10 µM came to 85.3%. Still for that read-out and setting: in the case of `CN(C)CCC=C1c2ccccc2COc2ccccc21` [Doxepin hydrochloride] it was 88.7%; in that of `COc1ccc(-c2cc(=S)ss2)cc1` [Anethole-trithione], 78.5%. Still for that read-out and setting: in the case of `O=c1cc(-c2ccc(O)c(O)c2)oc2cc(O)cc(O)c12` [Luteolin] it was 86.2%; in that of `NC(=O)OCC(COC(N)=O)c1ccccc1` [Felbamate], 78.6%; in that of `CC(C)COCC(CN(Cc1ccccc1)c1ccccc1)N1CCCC1` (stereo not drawn) [Bepridil hydrochloride], 89.1%.

On to `O=C(CCCN1CC=C(n2c(=O)[nH]c3ccccc32)CC1)c1ccc(F)cc1` [Droperidol], for which the inhibition at 10 µM turned out to be 87.6%. As for `CN1CCC(=C2c3ccccc3Sc3ccccc32)CC1` [Pimethixene maleate], the inhibition at 10 µM came out at 88.5%.

As to `COc1cc2nc(N3CCN(C(=O)C4COc5ccccc5O4)CC3)nc(N)c2cc1OC` (stereo not drawn) [Doxazosin mesylate], the inhibition at 10 µM came to 76.1%.

With `CCN(CC)CCOC(=O)C(c1ccccc1)C1CCCCC1` (stereo not drawn) [Drofenine hydrochloride], the inhibition at 10 µM was 76.8%. Take `COc1ccc(C(=O)c2ccccc2O)c(O)c1` [Dioxybenzone]: the inhibition at 10 µM stood at 100%. Still for that read-out and setting: in the case of `O=C(CCCN1CCC2(CC1)C(=O)NCN2c1ccccc1)c1ccc(F)cc1` [Spiperone] it was 82%. Still for that read-out and setting: to `CC(C)(C)NCC(O)c1ccc(O)c(CO)c1` (stereo not drawn) [Salbutamol] belongs 78%. Turning to `CC(NCCC(c1ccccc1)c1ccccc1)c1ccccc1` (stereo not drawn) [Fendiline hydrochloride], the inhibition at 10 µM turned out to be 91.3%.

On to `Fc1ccc(C(c2ccc(F)cc2)N2CCN(C/C=C/c3ccccc3)CC2)cc1` [Flunarizine dihydrochloride], for which the inhibition at 10 µM amounted to 96.6%. As for `C[C@H](N)[C@H](O)c1ccc(O)c(O)c1` [Levonordefrin], the inhibition at 10 µM was determined as 107%. As to `CC(CN1c2ccccc2Sc2ccccc21)N(C)C` (stereo not drawn) [Promethazine hydrochloride], the inhibition at 10 µM turned out to be 78.5%.

For `O=C(Nc1ccccc1)OCC(CN1CCCCC1)OC(=O)Nc1ccccc1` (stereo not drawn) [Diperodon hydrochloride], the inhibition at 10 µM came to 92.2%.

With `CN(C)CCCOc1nn(Cc2ccccc2)c2ccccc12` [Benzydamine hydrochloride], the inhibition at 10 µM turned out to be 83.6%. Same read-out and setting: to `CN(C)CCCN1c2ccccc2Sc2ccccc21` [Promazine hydrochloride] belongs 88.1%; to `CS(=O)(=O)c1ccc([C@@H](O)[C@@H](CF)NC(=O)C(Cl)Cl)cc1` [Florfenicol], 77.5%.

For the compound `Cc1cccc(C)c1OCC(=O)N[C@@H](Cc1ccccc1)[C@@H](O)C[C@H](Cc1ccccc1)NC(=O)[C@H](C(C)C)N1CCCNC1=O` [Lopinavir], the inhibition at 10 µM was 76.8%.

Take `CCCCCCCCNC(C)C(O)c1ccc(SC(C)C)cc1` (stereo not drawn) [Suloctidil]: the inhibition at 10 µM is 93.8%. The same measure, in the same setting: in the case of `Cc1cccc(C)c1NC(=O)CN1CCN(CCCC(c2ccc(F)cc2)c2ccc(F)cc2)CC1` [Lidoflazine] it was 92.7%; in that of `CCCOc1ccc(C(=O)OCCN(CC)CC)cc1N` [Proparacaine hydrochloride], 103%.

As for `O=C(CCCN1CCC(n2c(O)nc3ccccc32)CC1)c1ccc(F)cc1` [Benperidol], the inhibition at 10 µM is 84.2%. Still for that read-out and setting: in the case of `O=C1[C@H]2CCCC[C@H]2C(=O)N1CCCCN1CCN(c2nsc3ccccc23)CC1` [Perospirone] it was 89.7%; in that of `CN1CCN(CCCN2c3ccccc3Sc3ccc(C(F)(F)F)cc32)CC1` [Trifluoperazine dihydrochloride], 79.1%. The same measure, in the same setting: to `CCC(COC(=O)c1cc(OC)c(OC)c(OC)c1)(c1ccccc1)N(C)C` (stereo not drawn) [Trimebutine] belongs 88.7%; to `C1CCC(C(CC2CCCCN2)C2CCCCC2)CC1` (stereo not drawn) [Perhexiline maleate], 79.2%.

In the case of `CCc1nn(CCCN2CCN(c3cccc(Cl)c3)CC2)c(=O)n1CCOc1ccccc1` [Nefazodone hydrochloride], the inhibition at 10 µM is 88.5%. Turning to `CO[C@]12C[C@@H](COC(=O)c3cncc(Br)c3)CN(C)[C@@H]1Cc1cn(C)c3cccc2c13` [Nicergoline], the inhibition at 10 µM amounted to 82.3%. `CCOC(=O)Nc1ccc2c(c1)N(C(=O)CCN1CCOCC1)c1ccccc1S2` [Moricizine hydrochloride]: the inhibition at 10 µM stood at 75.8%.

As for `CCCCOc1ccc(C(=O)CCN2CCCCC2)cc1` [Dyclonine hydrochloride], the inhibition at 10 µM was 99%. On to `CN(C)CC/C=C1/c2ccccc2Sc2ccc(Cl)cc21` [Chlorprothixene hydrochloride], for which the inhibition at 10 µM amounted to 77.4%.

With `CCCCCCNC(=O)n1cc(F)c(=O)[nH]c1=O` [Carmofur], the inhibition at 10 µM is 124%. Regarding `CC(C)(C)NC(=O)[C@@H]1C[C@@H]2CCCC[C@@H]2CN1C[C@@H](O)[C@H](Cc1ccccc1)NC(=O)[C@H](CC(N)=O)NC(=O)c1ccc2ccccc2n1` [Saquinavir mesylate], the inhibition at 10 µM was 92.8%. Same read-out and setting: to `CCN(CC)CC#CCOC(=O)C(O)(c1ccccc1)C1CCCCC1` (stereo not drawn) [Oxybutynin chloride] belongs 77.3%. For the compound `CCCCc1cc2ccccc2c(OCCN(C)C)n1` [Dimethisoquin hydrochloride], the inhibition at 10 µM is 75.5%.

For `OC(CNCC(O)C1CCc2cc(F)ccc2O1)C1CCc2cc(F)ccc2O1` (stereo not drawn) [Nebivolol hydrochloride], the inhibition at 10 µM was 82.7%. In the case of `CNCCCC1c2ccccc2C=Cc2ccccc21` [Protriptyline hydrochloride], the inhibition at 10 µM worked out at 80%. For `CC(Cc1ccc(O)cc1)NCC(O)c1cc(O)cc(O)c1` (stereo not drawn) [Fenoterol hydrobromide], the inhibition at 10 µM came out at 78.3%.

With `CN(C(=O)CN(CCO)CC(=O)N(C)C(C)(C)Cc1ccccc1)C(C)(C)Cc1ccccc1` [Oxethazaine], the inhibition at 10 µM came out at 92.9%.

In the case of `C[C@]12CC[C@@H]3c4ccc(O)cc4CC[C@H]3[C@@H]1CCC2=O` [Estrone], the inhibition at 10 µM was found to be 78.2%. For `CCCCOc1cc(C(=O)NCCN(CC)CC)c2ccccc2n1` [Dibucaine], the inhibition at 10 µM worked out at 79.4%. Consider `CCCCOc1cc(C(=O)OCCN(CC)CC)ccc1N` [Benoxinate hydrochloride], for which the inhibition at 10 µM was 83.7%. `CCOC(=O)C1=C[C@]2(CC)CCCN3CCc4c(n1c1ccccc41)[C@@H]32` [Vinpocetine]: the inhibition at 10 µM turned out to be 93.4%.

In the case of `CC(COc1ccccc1)N(CCCl)Cc1ccccc1` (stereo not drawn) [Phenoxybenzamine hydrochloride], the inhibition at 10 µM amounted to 86.1%. For `CCN(CC)C(C)CN1c2ccccc2Sc2ccccc21` (stereo not drawn) [Ethopropazine hydrochloride], the inhibition at 10 µM turned out to be 85.5%. On to `O=c1[nH]c2ccccc2n1C1CCN(CCCC(c2ccc(F)cc2)c2ccc(F)cc2)CC1` [Pimozide], for which the inhibition at 10 µM is 101%.
